Assay results reported in US8481732B2 (Incyte Corporation, priority 2009, dated 2013).

Target: T1, histamine H4 receptor (Homo sapiens, UniProt Q9H3N8)
T1 construct: expressed in transfected cells; host or cells: HEK293SFM cells (membrane preparation)
Experiment: H4 Membrane Binding Assay (3H-Histamine displacement)
Conditions: membranes of recombinant HEK293SFM cells, 10 nM 3H-Histamine, 1.5 hr at room temperature
Outline: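 Membranes from HEK293SFM cells expressing human H4 (also human H1–H3, mouse H4), prepared in ice-cold 50 mM Tris-HCl pH 7.5. [3H]-histamine displacement, nonspecific binding defined with 1000× unlabeled ligand. Bound radioactivity separated on PEI-treated GF/B filters and measured by liquid scintillation counting.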

Row | SMILES | IC50
1 | COC(=O)c1ccc(COc2cccc(CNC(=O)c3ccc4c(N5CCN(C)CC5)nc(N)nc4c3)c2)cc1 [Example 193, Methyl 4-({3-[({[2-amino-4-(4-methylpiperazin-1-yl)quinazolin-7-yl]carbonyl}amino)methyl]phenoxy}methyl)benzoate] | 7.2 nM
2 | Cc1ccc(C#N)c(Oc2cccc(C(C)NC(=O)c3ccc4c(N5CCN(C)CC5)nc(N)nc4c3)c2)n1 (stereo not drawn) [Example 198, 2-Amino-N-(1-{3-[(3-cyano-6-methylpyridin-2-yl)oxy]phenyl}ethyl)-4-(4-methylpiperazin-1-yl)quinazoline-7-carboxamide] | 34 nM
3 | Cc1ccnc(Oc2cccc(CNC(=O)c3ccc4c(N5CCN(C)CC5)nc(N)nc4c3)c2)c1 [Example 182, 2-Amino-4-(4-methylpiperazin-1-yl)-N-{3-[(4-methylpyridin-2-yl)oxy]benzyl}quinazoline-7-carboxamide] | 56 nM
4 | CC(NC(=O)c1ccc2c(N3CCN(C)CC3)nc(N)nc2c1)c1cccc(Oc2ccc(Cl)cc2C#N)c1 (stereo not drawn) [Example 197, 2-Amino-N-{1-[3-(4-chloro-2-cyanophenoxy)phenyl]ethyl}-4-(4-methylpiperazin-1-yl)quinazoline-7-carboxamide] | 7.1 nM
5 | COC(=O)[C@H](Cc1ccc(-c2cnn(C)c2)cc1)NC(=O)c1ccc2c(N3CCN(C)CC3)nc(N)nc2c1 [Example 140, Methyl (2S)-2-({[2-amino-4-(4-methylpiperazin-1-yl)quinazolin-7yl]carbonyl}amino)-3-[4-(1-methyl-1H-pyrazol-4-yl)phenyl]propanoate] | 42 nM
6 | CN1CCN(c2cc(-c3ccc4c(c3)CN(C(=O)Cn3cccn3)CC4)nc(N)n2)CC1 [Example 112, 4-(4-Methylpiperazin-1-yl)-6-[2-(1H-pyrazol-1-ylacetyl)-1,2,3,4-tetrahydroisoquinolin-7-yl]pyrimidin-2-amine] | 337 nM
7 | COC(=O)c1cccc(-c2ccc(C[C@H](NC(=O)c3ccc4c(N5CCN(C)CC5)nc(N)nc4c3)C(=O)N(C)C)cc2)c1 [Example 158, Methyl 4′-[(2S)-2-({[2-amino-4-(4-methylpiperazin-1-yl)quinazolin-7-yl]carbonyl}amino)-3-(dimethylamino)-3-oxopropyl]biphenyl-3-carboxylate] | 6.6 nM
8 | CN1CCN(c2cc(-c3ccc4c(c3)CN(C(=O)CC3CCN(C(=O)c5ccccc5)CC3)CC4)nc(N)n2)CC1 [Example 73, 4-{2-[(1-Benzoylpiperidin-4-yl)acetyl]-1,2,3,4-tetrahydroisoquinolin-7-yl}-6-(4-methylpiperazin-1-yl)pyrimidin-2-amine] | 357 nM

Continued by falling IC50, values first:

Row | IC50 | SMILES
9 | 253 nM | CC(NC(=O)N1CCc2ccc(-c3cc(N4CCN(C)CC4)nc(N)n3)cc2C1)c1ccn(C)n1 (stereo not drawn) [Example 127, 7-[2-Amino-6-(4-methylpiperazin-1-yl)pyrimidin-4-yl]-N-[1-(1-methyl-1H-pyrazol-3-yl)ethyl]-3,4-dihydroisoquinoline-2(1H)-carboxamide]
10 | 44 nM | CN1CCN(c2nc(N)nc3cc(C(=O)NC(Cc4ccc(C(F)(F)F)cc4)C(=O)N(C)C)ccc23)CC1 (stereo not drawn) [Example 150, 2-Amino-N-{2-(dimethylamino)-2-oxo-1-[4-(trifluoromethyl)benzyl]ethyl}-4-(4-methylpiperazin-1-yl)quinazoline-7-carboxamide]
11 | 43.3 nM | CN1CCN(c2cc(-c3ccc4c(c3)CN(C(=O)OC3CCCC3)CC4)nc(N)n2)CC1 [Example 7, Cyclopentyl 7-[2-amino-6-(4-methylpiperazin-1-yl)pyrimidin-4-yl]-3,4-dihydroisoquinoline-2(1H)-carboxylate]
12 | 13 nM | CN1CCN(c2nc(N)nc3cc(C(=O)NCc4cccc(Oc5cnc6ccccc6n5)c4)ccc23)CC1 [Example 188, 2-Amino-4-(4-methylpiperazin-1-yl)-N-[3-(quinoxalin-2-yloxy)benzyl]quinazoline-7-carboxamide]
